Laboratory results: paper PMC10537268 (Plants, 2023)
Converted amounts (≈) assume the structure as drawn. “And” between values parts separate entries of the source, which are not always exact repeats. Identical values can stand only once.

How the values were obtained:
AChE = target: T1, AChE (Electrophorus electricus, UniProt O42275); assay: Anticholinesterase activity, modified Ellman method (AChE); format: biochemical
T1 construct: purchased Sigma Aldrich
Method: Cholinesterase inhibition was determined spectrophotometrically through the modified Ellman method. Ethanol was used as negative control. Sodium phosphate buffer, AChE enzyme stock solution, the essential oils, and geraniol were mixed and allowed to incubate for 30 min at room temperature DTNB and acetylthiocholine were added to initiate the enzyme reaction.

A549 cells = assay: MTT cytotoxicity assay, A549; format: cell-based; conditions: Homo sapiens, A549, 24 h, read-out: IC50 A549 cytotoxicity
Method: (§1) Human breast cancer cell lines MCF7 (ATCC HTB-22), human prostate cancer cell lines PC3 (ATCC CRL-1435), human lung cancer cell lines A549 (ATCC CCL-185), and human embryonic kidney cell lines HEK293 (ATCC CRL-1573) were cultured in Dulbecco’s Modified Eagle’s Medium/High Glucose (DMEM, High Glucose) or Dulbecco’s Modified Eagle’s Medium/F12 (DMEM, F12) at 37 °C in a humidified 5% CO2 atmosphere. The media were supplemented with 10% fetal bovine serum (FBS), 1% (v/v) antibiotic-antimycotics solution (100 U/mL of penicillin, 100 μg/mL of streptomycin, and 0.25 μg/mL of amphotericin B), and 1% (v/v) non-essential amino acids.
(§2) Cells were cultured for 24 h in 96-well plates containing 10^5 cells per well before exposure. The essential oils and geraniol were dissolved in DMSO (<1%) and diluted with respective medium for use in MTT assay (0.1–2000 µg/mL concentration range). After incubation, the […] and washed with D-PBS followed by addition of MTT (30 µL). After a 4 h incubation period, 150 µL of DMSO was added and mixed using a shaker at 25 °C. This was followed by measurement of the absorbances a 540 nm using the microplate reader. All experiments were performed in triplicate.

ACE2 = target: T2, ACE2 (Homo sapiens, UniProt Q9BYF1); assay: ACE2 enzyme inhibition assay (BioVision kit); format: biochemical; conditions: read-out: ACE2 inhibition
T2 construct: purchased BioVision K310
T2 sequence (Q9BYF1 18-805): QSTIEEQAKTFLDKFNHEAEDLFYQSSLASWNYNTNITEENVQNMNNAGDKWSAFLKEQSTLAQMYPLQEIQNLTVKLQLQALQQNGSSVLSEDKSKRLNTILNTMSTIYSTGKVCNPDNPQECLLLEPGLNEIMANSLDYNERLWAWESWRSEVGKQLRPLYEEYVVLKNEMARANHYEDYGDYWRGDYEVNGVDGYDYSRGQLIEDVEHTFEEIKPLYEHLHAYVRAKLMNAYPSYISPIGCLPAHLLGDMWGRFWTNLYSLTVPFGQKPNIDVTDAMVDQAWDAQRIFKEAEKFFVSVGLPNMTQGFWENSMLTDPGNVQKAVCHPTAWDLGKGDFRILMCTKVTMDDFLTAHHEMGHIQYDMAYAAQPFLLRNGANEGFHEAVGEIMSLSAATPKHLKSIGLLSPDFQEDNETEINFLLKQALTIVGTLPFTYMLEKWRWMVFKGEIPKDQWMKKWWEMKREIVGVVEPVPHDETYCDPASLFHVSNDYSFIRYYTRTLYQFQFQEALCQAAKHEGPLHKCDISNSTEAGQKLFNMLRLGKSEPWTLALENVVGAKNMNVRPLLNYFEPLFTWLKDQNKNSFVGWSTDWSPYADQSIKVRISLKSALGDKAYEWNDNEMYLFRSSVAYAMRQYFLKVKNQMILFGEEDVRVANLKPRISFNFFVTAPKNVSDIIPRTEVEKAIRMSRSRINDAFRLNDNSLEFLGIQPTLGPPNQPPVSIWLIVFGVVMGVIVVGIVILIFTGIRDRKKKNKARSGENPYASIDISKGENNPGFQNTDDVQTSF
Method: The ACE2 enzyme inhibition assay was performed using the commercially available kit (BioVision, UK, Catalog number: K310). Stock solutions of the test samples were prepared in DMSO (1%, v/v). Essential oils (20 μg/mL) and geraniol (5 μg/mL) were dispensed into a 96-well plate followed by addition of ACE2 enzyme solution (blank excluded). The reaction was started by adding 40 µL of substrate solution to each well. The reaction mixture was measured at Ex/Em = 320/420 nm wavelength using the SpectraMax i3, fluorescent microplate reader (Molecular Devices, CA, USA). The results are reported as % inhibition values, which were obtained for all samples from triplicate experiments.

COX-2 = target: T3, COX-2 (Homo sapiens, UniProt P35354); assay: biochemical
T3 sequence (P35354 18-604): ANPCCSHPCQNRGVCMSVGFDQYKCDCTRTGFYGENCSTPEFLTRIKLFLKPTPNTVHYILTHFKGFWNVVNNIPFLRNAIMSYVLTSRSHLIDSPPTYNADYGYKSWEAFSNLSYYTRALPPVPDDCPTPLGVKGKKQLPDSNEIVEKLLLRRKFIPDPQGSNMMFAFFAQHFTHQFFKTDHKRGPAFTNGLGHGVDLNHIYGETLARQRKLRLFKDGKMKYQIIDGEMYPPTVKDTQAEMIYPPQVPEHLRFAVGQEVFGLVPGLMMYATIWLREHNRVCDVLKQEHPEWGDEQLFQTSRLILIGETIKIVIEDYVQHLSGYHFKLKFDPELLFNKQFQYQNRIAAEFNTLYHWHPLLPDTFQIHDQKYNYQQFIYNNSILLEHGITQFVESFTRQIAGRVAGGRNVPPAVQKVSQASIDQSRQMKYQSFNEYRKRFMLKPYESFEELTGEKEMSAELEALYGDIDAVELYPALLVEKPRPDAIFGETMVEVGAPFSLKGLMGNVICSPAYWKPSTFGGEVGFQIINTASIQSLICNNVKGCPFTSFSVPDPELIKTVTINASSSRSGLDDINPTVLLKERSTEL
Method: (§3) The essential oils and geraniol were tested using a commercial COX-1 (Ovine), COX-2 (Human recombinant), and fluorometric inhibitory screening assay kit following the instructions recommended by the manufacturer (Cayman test kit 700100, Cayman Chemical Company, Ann Arbor, MI, USA). Briefly, 150 µL of assay buffer (0.1 M Tris-HCl pH 8.0), 10 µL of Heme, 10 µL of enzyme (COX-1 or COX-2), and 10 µL of the test sample were added to the wells. After 5 min at 25 °C, 10 µL of ADHP (10-acetyl-3 7-dihydroxy phenoxazine) and 10 µL of arachidonic acid were added to initiate the reaction. The plate was incubated at room temperature for 2 min followed by fluorescence measured at 530 nm (excitation) and 585 nm (emission). Stock solution of the essential oils was prepared with DMSO 1%. The triplicate experimental data are expressed as mean ± standard deviation (SD). For the percentage inhibition (%I) calculations, the formula below was used:t% I = [(Initial Activity − Sample Activity)/Initial Activity] × 100

[1] = MTT cytotoxicity assay, HEK293; format: cell-based; conditions: human, HEK293 cells, healthy cell line, ND: Not detected
Method: as §1, §2

PC3 cells = assay: MTT cytotoxicity assay, PC3; format: cell-based; conditions: Homo sapiens, PC-3, 24 h, read-out: IC50 PC3 cytotoxicity
Method: as §1, §2

COX-1 = target: T4, COX-1 (Ovis aries, UniProt P05979); assay: COX-1 fluorometric inhibitory screening assay kit; format: biochemical, Ovine
T4 construct: purchased Cayman Chemical Company 700100
T4 sequence (P05979 25-600): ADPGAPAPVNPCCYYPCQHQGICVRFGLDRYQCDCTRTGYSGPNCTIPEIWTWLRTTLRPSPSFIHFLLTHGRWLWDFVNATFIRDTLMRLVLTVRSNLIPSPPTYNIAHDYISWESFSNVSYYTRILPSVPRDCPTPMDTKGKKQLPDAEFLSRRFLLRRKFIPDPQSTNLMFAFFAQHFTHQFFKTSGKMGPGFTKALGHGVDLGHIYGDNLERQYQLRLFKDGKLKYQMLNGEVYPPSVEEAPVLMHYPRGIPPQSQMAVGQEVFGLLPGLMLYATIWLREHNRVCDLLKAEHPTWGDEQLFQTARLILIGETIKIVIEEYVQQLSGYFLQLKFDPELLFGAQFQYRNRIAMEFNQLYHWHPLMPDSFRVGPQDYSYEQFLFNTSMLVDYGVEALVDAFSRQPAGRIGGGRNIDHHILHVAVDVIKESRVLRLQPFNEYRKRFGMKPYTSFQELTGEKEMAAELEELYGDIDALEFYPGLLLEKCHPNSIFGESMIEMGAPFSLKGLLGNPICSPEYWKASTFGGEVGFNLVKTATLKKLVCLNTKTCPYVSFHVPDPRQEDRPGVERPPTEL
Method: as §3

MCF7 cells = assay: MTT cytotoxicity assay, MCF7; format: cell-based; conditions: Homo sapiens, MCF7, 24 h, read-out: IC50 MCF7 cytotoxicity
Method: as §1, §2

[2] = human recombinant COX-2, fluorometric kit

T1 sequence (O42275 24-633): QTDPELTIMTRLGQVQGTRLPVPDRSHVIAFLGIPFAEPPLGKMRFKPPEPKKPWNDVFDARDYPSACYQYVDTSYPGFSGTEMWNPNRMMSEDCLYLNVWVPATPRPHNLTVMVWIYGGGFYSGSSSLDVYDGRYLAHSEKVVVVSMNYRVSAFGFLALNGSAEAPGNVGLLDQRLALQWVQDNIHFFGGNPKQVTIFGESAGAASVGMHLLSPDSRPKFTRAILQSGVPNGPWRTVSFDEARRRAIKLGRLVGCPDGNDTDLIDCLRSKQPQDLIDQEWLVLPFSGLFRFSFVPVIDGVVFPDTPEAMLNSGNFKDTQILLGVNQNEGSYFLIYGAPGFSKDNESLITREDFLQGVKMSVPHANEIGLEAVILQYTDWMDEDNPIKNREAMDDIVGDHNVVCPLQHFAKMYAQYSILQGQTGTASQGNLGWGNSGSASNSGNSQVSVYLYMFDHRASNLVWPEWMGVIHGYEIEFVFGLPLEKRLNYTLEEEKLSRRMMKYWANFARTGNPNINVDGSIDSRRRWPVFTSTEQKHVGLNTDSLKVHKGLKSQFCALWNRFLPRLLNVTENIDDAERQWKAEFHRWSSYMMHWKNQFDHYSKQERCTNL

Work on `CC(C)=CCC/C(C)=C/CO` [Geraniol] yielded an IC50 (AChE) of 109 µM, an IC50 (A549 cells) of 58.9 ± 1.09 µg/mL (≈ 382 µM) and an inhibition at 5 µg/mL (ACE2) of 86.3%. For the same compound, the “SI (selectivity index)” value (COX-2; COX-2 versus COX-1 IC50) was 0.72, the IC50 (COX-2; [2]) was 52.5 µM and 52.6 µM and the IC50 at 24 h [1] was 81.8 ± 1.98 µg/mL (≈ 530 µM). For the same compound, the IC50 (PC3 cells) was 77 ± 2.06 µg/mL (≈ 499 µM), the IC50 (COX-1; IC50 COX-1, ovine COX-1, fluorometric kit) was 71.3 µM and 72.4 µM and the IC50 (MCF7 cells) was 42.8 ± 1.48 µg/mL (≈ 278 µM).

In the case of `CC(Cc1ccc(O)c(O)c1)C(C)Cc1ccc(O)c(O)c1` (centres unmarked) [Nordihydroguaretic Acid, Nordihydroguaiaretic acid, reference compound], the “IC50 COX-2” value (COX-2; [2]) is reported as 9.1 µg/mL and the “IC50 COX-1” value (COX-1; ovine COX-1, fluorometric kit) is reported as 7.1 µg/mL (≈ 23.5 µM).
